# Test system: NKI2 TCR-transduced peripheral blood lymphocytes
# Test: IFNγ production by NKI2-transduced lymphocytes with peptide-loaded JY cells
# Format: cell-based, human
# Details: NKI2 transduced T cells
sequence,measurement,value
ALDSRSEHFM,potency of stimulation relative to CDK4 neoantigen ALDPHSGHFV,as potently as the CDK4 neoantigen

# Reference: article PMC5786495 (Cell, 2017)
